Consider 10 compounds from ChEMBL document CHEMBL1201862, “PubChem BioAssay data set” (2004).

“And” between values parts separate entries of the source, which are not always exact repeats. Identical values can stand only once.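 A five-concentration, 48-hour dose response in 96-well plates underlies each endpoint, interpolated linearly between surrounding concentrations. GI50 is the concentration that inhibits growth by half.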 The source made the active and inactive calls. Cut-off read from the data, not from the text of the source: active = GI50 up to about 1.1 µM and inactive = higher.

What all share (assay): NCI anticancer screen, dose series, 48 h
The subject of assay [1] is 786-0.
The subject of assay [2] is A549.
Assay [3] deals with CCRF-CEM.
The subject of assay [4] is COLO 205.
Assay [5] relates to DU-145.
For assay [6], the system named is EKVX.
The subject of assay [7] is HCC 2998.
The subject of assay [8] is IGROV-1.
Assay [9] has as its system KM12.
In assay [10] the test system is MDA-N.
In assay [11] the test system is MOLT-4.
Assay [12] concerns NCI-H522.
The test system of assay [13] is OVCAR-3.
Assay [14] has as its system OVCAR-4.
The test system of assay [15] is RXF 393.
Assay [16] concerns SK-MEL-28.
Assay [17] has as its system SR.
The test system of assay [18] is TK-10.
In assay [19] the test system is U-251.
Assay [20] deals with UO-31.

For `N#C/C(=C\Nc1ccccn1)C(=O)C1CC1`, the GI50 in [1] is > 100 µM (inactive); in assay [2] it was > 100 µM (inactive); in assay [3], 76.9 µM (inactive); in assay [4] it was > 100 µM (inactive); in assay [5], > 100 µM (inactive); in assay [6], > 100 µM (inactive). The GI50 in [7], in assay [8], in assay [9], in assay [10], in assay [11] and in assay [12] was > 100 µM (inactive) each time. In addition, the GI50 in [13], in assay [14], in assay [15], in assay [16], in assay [17] and in assay [18] was > 100 µM (inactive) throughout. The GI50 in [19] and in assay [20] was > 100 µM (inactive) in each case.
Take `O[C@@H]1C[C@@H]2N[C@@](O)(C[C@@H]2O)[C@H]1O`: the GI50 in assay [1], in [2], in [3], in assay [4], in assay [5] and in [6] was > 100 µM (inactive) in each case. Also, the GI50 in assay [7], in assay [8], in [9], in assay [10], in [11] and in assay [12] was > 100 µM (inactive) each time. Also, the GI50 in assay [13], in assay [14], in [15], in [16], in [17] and in [18] was > 100 µM (inactive) in each case. The GI50 in assay [19] and in assay [20] was > 100 µM (inactive) throughout.
Take `CCC1(c2ccc(OC)c(OC)c2)CCN(S(=O)(=O)c2ccc(C)cc2)C1` (stereo not given): the GI50 was > 100 µM (inactive) in assay [1]; 62.8 µM (inactive) in [2]; > 100 µM (inactive) in [3]; > 100 µM (inactive) in assay [4]; > 100 µM (inactive) in assay [5]; > 100 µM (inactive) in [6]. The GI50 was > 100 µM (inactive) in assay [7]; > 100 µM (inactive) in assay [8]; 33.3 µM (inactive) in [9]; > 100 µM (inactive) in assay [10]; 19.2 µM (inactive) in assay [11]; 68.5 µM (inactive) in assay [12]. Besides, the GI50 in assay [13] was > 100 µM (inactive); in [14], 39.4 µM (inactive); in [15], > 100 µM (inactive); in assay [16], > 10 µM (inactive); in assay [17], > 10 µM (inactive); in [18] it was > 100 µM (inactive). In addition, the GI50 in assay [19] and in assay [20] was > 100 µM (inactive) each time.
`CN(C(=O)C12C3(C(=O)O)C4C5(C(=O)O)C3C1(C(=O)O)C5C42C(=O)O)C(C)(C)C` (stereo not given): the GI50 in assay [1], in assay [2], in [3], in assay [4], in assay [5] and in assay [6] was > 100 µM (inactive) each time. The GI50 in assay [7], in [8], in assay [9], in assay [10], in assay [11] and in assay [12] was > 100 µM (inactive) each time. Moreover, the GI50 in assay [13], in assay [14], in [15], in [16], in assay [17] and in assay [18] was > 100 µM (inactive) each time. Also, the GI50 in assay [19] and in assay [20] was > 100 µM (inactive) in each case.
As to `COCC1OC(Sc2ccccc2)C(O)C(OC)C1OC` (stereo not given), the GI50 in assay [1] was > 100 µM (inactive); in assay [2], > 100 µM (inactive); in assay [3] it was > 100 µM (inactive) and 52.4 µM (inactive); in [4], > 100 µM (inactive); in assay [5], > 100 µM (inactive); in assay [6], > 100 µM (inactive). Besides, the GI50 in assay [7], in assay [8], in assay [9], in assay [10], in assay [11] and in assay [12] was > 100 µM (inactive) each time. Also, the GI50 in assay [13], in assay [14], in [15], in assay [16], in assay [17] and in [18] was > 100 µM (inactive) throughout. Further, the GI50 in assay [19] and in [20] was > 100 µM (inactive) each time.
`OCCCCn1cc(Cn2ncc3c(SCc4ccccc4)ncnc32)nn1`: the GI50 in [1] is 63.4 µM (inactive); in assay [2], 42.7 µM (inactive); in assay [3] it was 45.5 µM (inactive); in assay [4] it was 31 µM (inactive); in assay [5], 58.5 µM (inactive); in [6] it was 30.6 µM (inactive). In addition, the GI50 is 56.4 µM (inactive) in [7]; 77.6 µM (inactive) in assay [8]; 26 µM (inactive) in [9]; 15.7 µM (inactive) in assay [10]; 21.3 µM (inactive) in assay [11]; 29.2 µM (inactive) in [12]. Further, the GI50 in [13] was 28.2 µM (inactive); in [14], 28.9 µM (inactive); in assay [15], 64.9 µM (inactive); in [16], 51.2 µM (inactive); in assay [17], 27.7 µM (inactive); in assay [18], > 100 µM (inactive). The GI50 in [19] was 39.2 µM (inactive); in [20], 31.1 µM (inactive).
`CN(C)CCNc1nc(-c2ccc3ccccc3c2)nc2[nH]cnc12`: the GI50 was 10 µM (inactive) in [1]; 12.5 µM (inactive) in assay [2]; 9.27 µM (inactive) in assay [3]; 7.55 µM (inactive) in assay [4]; 10.6 µM (inactive) in assay [5]; 4.55 µM (inactive) in assay [6]. For the same compound, the GI50 in [7] is 1.99 µM (inactive); in assay [8], 2.31 µM (inactive); in assay [9], 4.8 µM (inactive); in assay [10], 10.7 µM (inactive); in assay [11], 3.55 µM (inactive); in assay [12], 1.12 µM (active). Further, the GI50 in assay [13] is 7.64 µM (inactive); in [14], 10.7 µM (inactive); in assay [15], 11.6 µM (inactive); in assay [16] it was 13.6 µM (inactive); in assay [17], 2.88 µM (inactive); in [18], 6.38 µM (inactive). In addition, the figures for the GI50 in assay [19] and in assay [20] were 13.1 µM (inactive) and 3.03 µM (inactive), respectively.
On to `N#CC(C#N)=Cc1c(O)ccc2ccccc12`, for which the GI50 in assay [1] is 13.3 µM (inactive); in assay [2], 17.1 µM (inactive); in assay [3], 1.57 µM (inactive); in assay [4] it was 15.2 µM (inactive); in assay [5], 14.2 µM (inactive); in assay [6] it was 12 µM (inactive). Further, the GI50 in assay [7] was 16 µM (inactive); in assay [8], 17.8 µM (inactive); in assay [9] it was 17.8 µM (inactive); in [10] it was 12.7 µM (inactive); in assay [11], 2.18 µM (inactive); in assay [12] it was 9.93 µM (inactive). For the same compound, the GI50 in assay [13] was 13.7 µM (inactive); in [14], 18.3 µM (inactive); in [15], 15.2 µM (inactive); in assay [16] it was 14.5 µM (inactive); in assay [17], 4.17 µM (inactive); in assay [18] it was 18.1 µM (inactive). The GI50 is 15.9 µM (inactive) in [19] and 14 µM (inactive) in assay [20].
`CC(N/N=C(\S)N1CCCCCC1)c1cccnn1` (stereo not given): the GI50 is 0.394 µM (active) in assay [1]; 0.301 µM (active) in assay [2]; 0.112 µM (active) in [3]; 0.146 µM (active) in [4]; 0.579 µM (active) in assay [5]; 0.27 µM (active) in assay [6]. Besides, the GI50 in [7] is 2.45 µM (inactive); in assay [8], 0.361 µM (active); in [9] it was 0.525 µM (active); in assay [10] it was 0.684 µM (active); in assay [11], 0.111 µM (active); in [12], 0.2 µM (active). Also, the GI50 was 0.192 µM (active) in assay [13]; 0.348 µM (active) in assay [14]; 0.228 µM (active) in assay [15]; 0.482 µM (active) in assay [16]; 0.132 µM (active) in assay [17]; 0.706 µM (active) in assay [18]. Further, the GI50 was 0.326 µM (active) in assay [19] and 0.526 µM (active) in assay [20].
As for `COc1ccc(-c2cc(=O)c3c(O)cc(C)cc3o2)cc1OC`, the GI50 in assay [1], in assay [2], in [3], in [4], in assay [5] and in assay [6] was > 100 µM (inactive) each time. The GI50 is 79.6 µM (inactive) in assay [7]; > 100 µM (inactive) in assay [8]; > 100 µM (inactive) in [9]; > 100 µM (inactive) in assay [10]; > 100 µM (inactive) in [11]; > 100 µM (inactive) in assay [12]. The GI50 in assay [13], in [14], in assay [15], in assay [16], in [17] and in assay [18] was > 100 µM (inactive) throughout. Also, the GI50 in [19] and in [20] was > 100 µM (inactive) throughout.
